These results are taken from patent US20250213519A1, “SYNERGY FOR INCREASING INSULIN SENSITIVITY” (Board of Supervisors of Louisiana State University and …, priority 2022, published 2025).

A word on the Cmax: it is the highest concentration seen after dosing.

For one series, the system named is human adipocytes. The series can be described thus: mRNA levels (qRT-PCR) in human adipocyte cultures treated for seven days. The format is cell-based. The following applies: for effects on gene expression of myricetin added to NRBC: added to nar ext + β-carotene, nanomolar myricetin. An excerpt:
In adipocytes, CDK5 inhibitors reduce adipogenesis and increase genes for energy expenditure by altering PPARγ target gene selection. We measured the expression of the PPARα/γ direct target gene UCP1 after treating human adipocyte cultures with CDK5-inhibiting flavonols combined with naringenin for seven days.
Human adipose-derived stem cells from overweight and obese female donors were purchased from LaCell, LLC (New Orleans, Louisiana) or isolated from lipoaspirate waste donated post-surgery from women with obesity using methods as previously described (31). Cells were seeded, maintained until two days after becoming confluent, and differentiated into adipocytes in the presence of rosiglitazone and isobutylmethylxanthine for five days as previously described (25). […], dissolved in DMSO at 1000×, started 5 days after the differentiation period and lasted for seven days in adipocyte maintenance medium with heat inactivated serum, before RNA and protein were isolated from adipocyte cultures.
Quantitative reverse transcriptase and real-time PCR were conducted in one reaction with the gene-specific reverse PCR primer also priming the cDNA synthesis as previously described (25). Primer-probe sequences for UCP1, GLUT4, ATGL, adiponectin, PGC-1α and ribosomal RPL13A, used to adjust target gene values for total RNA in each sample, have been previously reported (25). […] Predesigned human primer and probe sets from Thermofisher Scientific are PM20D1 Hs00399438_m1; ANGPTL4 Hs00211522_m1; GDF11 Hs00195156_m1; S100B Hs00902901_m1.
(Real-time PCR tracks product formation cycle by cycle.)

Series [1] in a line: Pharmacokinetics of myricetin in rats. It counts as in vivo. The following applies: plasma, po, from Table 1 (rat), converted.

Entries after “also recorded” stand apart in the source; their conditions may differ.

As for `O=c1c(O)c(-c2cc(O)c(O)c(O)c2)oc2cc(O)cc(O)c12` [myricetin], the “UCP1 and GLUT4 mRNA, flavonol combined with naringenin” value with human adipocytes (2.5 μM flavonol + 8 μM naringenin extract, 7 days, vs naringenin alone (FIG. 1)) was “synergistically increased expression of UCP1 and GLUT4”. For the same compound, the “most active myricetin concentration with naringenin extract and β-carotene” value in the series with human adipocytes (25, 50 and 100 nM tested with NRBC) was found to be 50 nM. Besides, the “myricetin concentration with most potent upregulation of gene expression” value in the series with human adipocytes (added to 8 μM naringenin, 0.1 μM to 6 μM tested) is 0.1 µM. Also, the figures for the “effects on gene expression of myricetin added to NRBC” value in the series on human adipocytes and in the series with human adipocytes (listed as Myricetin) were “further upregulates gene expression; also recorded: almost doubles; also recorded: approximately doubles” and “enhances the effects on gene expression”, respectively. The “increase in UCP-1 and GLUT-4 with naringenin” value with human adipocytes (human fat cells, myricetin with naringenin) is “many fold greater increase in UCP-1 and GLUT-4”. The “gene expression, myricetin alone” value with human adipocytes (low nanomolar concentrations, 7 days) was “no effect at any concentration”. Moreover, the “effects on gene expression combined with naringenin” value in the series on human adipocytes (myricetin 5 nM + 8 μM naringenin ext) is “slightly reduced”; with human adipocytes (myricetin 50 nM and 25 nM + 8 μM naringenin ext), “remained strong”. Besides, the “upregulation of thermogenic gene expression and adiponectin” value in the series with human adipocytes (myricetin added to naringenin alone or to naringenin and beta carotene) was “approximately doubles”. The Cmax in series [1] (first value (50 mg/kg p.o.)) is 5 µM; in series [1] (second value (100 mg/kg p.o.)), 8.7 µM.
